Values quoted from earlier work in US20090123919A1, “Diagnosing Pathological Conditions Using Interallelic Epigenetic Variations” (Allelis Diagnostics Ltd., priority 2005, published 2009).

System: aneuploid genotypes
Conditions: in the presence of 5-azacytidine, an inhibitor of DNA methylation

In the case of `Nc1ncn([C@@H]2O[C@H](CO)[C@@H](O)[C@H]2O)c(=O)n1` [5-azacytidine], the “loss of the inherent temporal order of allelic replication” value is listed as “can be reversed”.
